Experiment [1] concerns MCF7 breast cancer cell line. The experiment can be described thus: MTT cell proliferation assay. In kind it is cell-based. Particulars: MCF7 control (TR) vs shZNF cells, different doses of ABT888 for 48 hours with or without radiation (2 Gy). The protocol: Control cells of the MCF7 breast cancer cell line (TR), as well as MCF7 cells transfected with shRNAs targeting ZNF365 (shZNF) were treated with different doses of the PARP inhibitor, ABT888, for 48 hours with or without radiation (2 Gy). A standard MTT cell proliferation assay was performed to determine cell viability.

The test system of experiment [2] is U2OS cells. The experiment can be described thus: 53BP1-positive DNA damage foci (DSB) staining. The experiment is classed as cell-based. Particulars: ZNF365-deficient U2OS cells (shZNF-2 or shZNF-5), additional treatment with 1 μM ABT888. The text has this:
FIGS. 10A-10C show increased DNA double strand breaks (DSB) in ZNF365-deficient cells.
U2OS cells infected with either a control scrambled shRNA (Scr) to establish the basal DSB levels or with either of two independent shRNA sequences targeting ZNF365 (shZNF-2 or shZNF-5) were scored for 53BP1-positive damage foci as an indicator of DSB (FIG. 10A; red highlighted dots indicates foci and dotted circles indicate nuclei). Quantification of the 53BP1-positive foci indicated increased numbers of DSB in ZNF365-deficient cells (FIG. 10B).

This note sets out measurements from patent US10378060B2, “ZNF365/ZFP365 biomarker predictive of anti-cancer response” (Dana-Farber Cancer Institute, Inc., priority 2011, dated 2019).

`C[C@]1(c2nc3c(C(N)=O)cccc3[nH]2)CCCN1` [ABT888]: in experiment [1], the cell viability entry is on record as “ZNF365 deficiency sensitizes cells”. Besides, in experiment [2], the “53BP1-positive DNA damage foci as an indicator of DSB” value is “became more prominent”.
